Source: patent US12662490B2, “Heterocyclic compounds” (Hoffmann-La Roche Inc., priority 2019, dated 2026)

Each compound was assayed against T1, MAGL (Homo sapiens, UniProt Q99685) (assay: 2-AG assay (MAGL inhibitory activity; hydrolysis of 2-arachidonoylglycerol to arachidonic acid followed by mass spectrometry)). Conditions: 15 min preincubation at RT, 8 μM 2-arachidonoylglycerol, 30 min at RT, RapidFire MS readout.
T1 sequence (Q99685 1-303): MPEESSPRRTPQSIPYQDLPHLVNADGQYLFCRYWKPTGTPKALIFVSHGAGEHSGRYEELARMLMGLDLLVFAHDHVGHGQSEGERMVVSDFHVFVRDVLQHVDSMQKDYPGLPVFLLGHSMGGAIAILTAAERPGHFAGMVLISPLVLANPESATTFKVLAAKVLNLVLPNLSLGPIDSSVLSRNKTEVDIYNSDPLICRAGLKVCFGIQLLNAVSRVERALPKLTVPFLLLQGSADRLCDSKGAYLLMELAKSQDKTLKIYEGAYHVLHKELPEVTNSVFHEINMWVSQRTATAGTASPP
Type: biochemical
Experimental: Compounds were profiled for MAGL inhibitory activity by determining the enzymatic activity by following the hydrolysis of the natural substrate 2-arachidonoylglycerol (2-AG) resulting in arachidonic acid, which can be followed by mass spectrometry. This assay is hereinafter abbreviated “2-AG assay”.
The 2-AG assay was carried out in 384 well assay plates (PP, Greiner Cat #784201) in a total volume of 20 μL. Compound dilutions were made in […] (VWR Chemicals 23500.297) in a polypropylene plate in 3-fold dilution steps to give a final concentration range in the assay from 12.5 μM to […]. 0.25 μL compound dilutions (100% DMSO) were added to 9 μL MAGL in assay buffer (50 mM TRIS (GIBCO, 15567-027), 1 mM EDTA (Fluka, 03690-100 mL), 0.010 (v/v) Tween. After shaking, the plate was incubated for 15 min at RT. To start the reaction, 10 μL 2-arachidonoylglycerol in assay buffer was added. The final concentrations in the assay was […] and 8 μM 2-arachidonoylglyerol. After shaking and 30 min incubation at RT, the reaction was quenched by the addition of 40 μL of ACN containing 4 μM of d8-arachidonic acid. The amount of arachidonic acid was traced by an online SPE system (Agilent Rapidfire) coupled to a triple quadrupole mass spectrometer (Agilent 6460). A C18 SPE cartridge (G9205A) was used in an ACN/water liquid setup. The mass spectrometer was operated in negative electrospray mode following the mass transitions 303.1→259.1 for arachidonic acid and 311.1→267.0 for d8-arachidonic acid. The activity of the compounds was calculated based on the ratio of intensities [arachidonic acid/d8-arachidonic acid].

Row | Compound | IC50 [nM]
1 | COc1cccc(C(=O)N2CCN3CC(c4ccc5c(c4)CC5)OCC3C2)c1Cl (mixture of isomers) [Example 47, [3-(3-bicyclo[4.2.0]octa-1,3,5-trienyl)-3,4,6,7,9,9a-hexahydro-1H-pyrazino[2,1-c][1,4]oxazin-8-yl]-(2-chloro-3-methoxy-phenyl)methanone] | 134
2 | COc1cccc(C(=O)N2CCN3CC(c4ccc(C(F)F)cc4)OCC3C2)c1Cl (mixture of isomers) [Example 48, (2-chloro-3-methoxy-phenyl)-[3-[4-(difluoromethyl)phenyl]-3,4,6,7,9,9a-hexahydro-1H-pyrazino[2,1-c][1,4]oxazin-8-yl]methanone] | 146
3 | O=C(c1cccc(-c2c[nH]nc2F)c1Cl)N1CCN2CC(c3ccc(C(F)(F)F)nc3)OC[C@@H]2C1 (mixture of isomers) [Example 68, [(9aS)-3-[6-(trifluoromethyl)-3-pyridyl]-3,4,6,7,9,9a-hexahydro-1H-pyrazino[2,1-c][1,4]oxazin-8-yl]-[2-chloro-3-(3-fluoro-1H-pyrazol-4-yl)phenyl]methanone] | 15.8
4 | O=C(c1cccc(-c2c[nH]nc2F)c1Cl)N1CCN2CC(c3ccc(Br)nc3)OC[C@@H]2C1 (mixture of isomers) [Example 70, [2-chloro-3-(3-fluoro-1H-pyrazol-4-yl)phenyl]-[(9aS)-3-(6-bromo-3-pyridyl)-3,4,6,7,9,9a-hexahydro-1H-pyrazino[2,1-c][1,4]oxazin-8-yl]methanone] | 44.6
5 | O=C(c1cccc(-c2c[nH]nc2F)c1Cl)N1CCN2CC(c3ccc(OC(F)F)cc3)OC[C@@H]2C1 (mixture of isomers) [Example 73, (2-chloro-3-(3-fluoro-1H-pyrazol-4-yl)phenyl)((9aS)-3-(4-(difluoromethoxy)phenyl)hexahydropyrazino[2,1-c][1,4]oxazin-8(1H)-yl)methanone] | 53.3
6 | COc1cccc(C(=O)N2CCN3C[C@@H](c4ccc(F)c(Cl)c4)OC[C@@H]3C2)c1Br (racemic) [Example 2, (2-bromo-3-methoxy-phenyl)-[rac-(3R,9aS)-3-(3-chloro-4-fluoro-phenyl)-3,4,6,7,9,9a-hexahydro-1H-pyrazino[2,1-c][1,4]oxazin-8-yl]methanone] | 14.6
7 | C/C=C/c1cc([C@@H]2CN3CCN(C(=O)c4cccc(OC)c4Cl)C[C@H]3CO2)ccc1F (racemic) [Example 10, (2-chloro-3-methoxy-phenyl)-[(3R,9aS)-3-[4-fluoro-3-[rac-(E)-prop-1-enyl]phenyl]-3,4,6,7,9,9a-hexahydro-1H-pyrazino[2,1-c][1,4]oxazin-8-yl]methanone] | 179
8 | COc1cccc(C(=O)N2CCN3C[C@H](c4ccc(Br)cn4)OC[C@H]3C2)c1Cl (racemic) [Example 53, (2-chloro-3-methoxy-phenyl)-[rac-(3R,9aR)-3-(5-bromo-2-pyridyl)-3,4,6,7,9,9a-hexahydro-1H-pyrazino[2,1-c][1,4]oxazin-8-yl]methanone] | 76
9 | COc1cccc(C(=O)N2CCN3C[C@@H](c4ccc(Br)cn4)OC[C@H]3C2)c1Cl (racemic) [Example 54, (2-chloro-3-methoxy-phenyl)-[rac-(3S,9aR)-3-(5-bromo-2-pyridyl)-3,4,6,7,9,9a-hexahydro-1H-pyrazino[2,1-c][1,4]oxazin-8-yl]methanone] | 975
10 | COc1cccc(C(=O)N2CCN3C[C@H](c4cncc(Cl)c4)OC[C@@H]3C2)c1Cl (racemic) [Example 58, (2-chloro-3-methoxy-phenyl)-[rac-(3S,9aS)-3-(5-chloro-3-pyridyl)-3,4,6,7,9,9a-hexahydro-1H-pyrazino[2,1-c][1,4]oxazin-8-yl]methanone] | 2220
11 | COc1cccc(C(=O)N2CCN3C[C@@H](c4cncc(Cl)c4)OC[C@@H]3C2)c1Cl (racemic) [Example 59, (2-chloro-3-methoxy-phenyl)-[rac-(3R,9aS)-3-(5-chloro-3-pyridyl)-3,4,6,7,9,9a-hexahydro-1H-pyrazino[2,1-c][1,4]oxazin-8-yl]methanone] | 544
12 | COc1cccc(C(=O)N2CCN3C[C@@H](c4sc(C)nc4C)OC[C@@H]3C2)c1Cl (single isomer, unassigned) [Example 51] | 4980
13 | COc1cccc(C(=O)N2CCN3C[C@H](c4sc(C)nc4C)OC[C@H]3C2)c1Cl (single isomer, unassigned) [Example 52] | 1380
14 | COc1cccc(C(=O)N2CCN3C[C@@](O)(c4nc5ccccc5[nH]4)OC[C@@H]3C2)c1Cl (single isomer, unassigned) [Example 60] | 951
15 | COc1cccc(C(=O)N2CCN3C[C@](O)(c4nc5ccccc5[nH]4)OC[C@H]3C2)c1Cl (single isomer, unassigned) [Example 61] | 294
16 | COc1cccc(C(=O)N2CCN3C[C@@H](c4cccc(C(F)(F)F)n4)OC[C@@H]3C2)c1Cl (single isomer, unassigned) [Example 63] | 1310
17 | COc1cccc(C(=O)N2CCN3C[C@H](c4cc(Cl)c(Cl)cn4)OC[C@H]3C2)c1Cl (single isomer, unassigned) [Example 66] | 531
18 | COc1cccc(C(=O)N2CCN3C[C@@H](c4cc(Cl)c(Cl)cn4)OC[C@@H]3C2)c1Cl (single isomer, unassigned) [Example 67] | 8.4
19 | COc1cccc(C(=O)N2CCN3CC(c4ccc(F)c(Cl)c4)SC[C@@H]3C2)c1Cl (single isomer, unassigned) [Example 161] | 3.1
20 | COc1cccc(C(=O)N2CCN3CC(c4ccc(F)c(Cl)c4)SC[C@@H]3C2)c1Cl (single isomer, unassigned) [Example 162] | 21.6
21 | COc1cccc(C(=O)N2CCN3C[C@@H](c4ccc(F)c(Cl)c4)OC[C@]3(C)C2)c1Cl (stereo in doubt) [Example 32, (2-chloro-3-methoxy-phenyl)-[(rel-3R,9aS)-3-(3-chloro-4-fluoro-phenyl)-9a-methyl-1,3,4,6,7,9-hexahydropyrazino[2,1-c][1,4]oxazin-8-yl]methanone] | 335
22 | COc1cccc(C(=O)N2CCN3C[C@H](c4ccc(F)c(Cl)c4)OC[C@@]3(C)C2)c1Cl (stereo in doubt) [Example 33, (2-chloro-3-methoxy-phenyl)-[(rel-3S,9aR)-3-(3-chloro-4-fluoro-phenyl)-9a-methyl-1,3,4,6,7,9-hexahydropyrazino[2,1-c][1,4]oxazin-8-yl]methanone] | 1910
23 | COc1cccc(C(=O)N2CCN3C[C@@H](c4ccc(F)c(Cl)c4)OC[C@@H]3C2)c1Cl [Example 1, [(3R,9aS)-3-(3-chloro-4-fluoro-phenyl)-3,4,6,7,9,9a-hexahydro-1H-pyrazino[2,1-c][1,4]oxazin-8-yl]-(2-chloro-3-methoxy-phenyl)methanone] | 18.3
24 | O=C(c1cnc2sccc2c1Cl)N1CCN2C[C@@H](c3ccc(F)c(Cl)c3)OC[C@@H]2C1 [Example 5, (4-chlorothieno[2,3-b]pyridin-5-yl)-[(3R,9aS)-3-(3-chloro-4-fluoro-phenyl)-3,4,6,7,9,9a-hexahydro-1H-pyrazino[2,1-c][1,4]oxazin-8-yl]methanone] | 28.2
25 | COc1cccc(C(=O)N2CCN3C[C@@H](c4ccc(F)c(Br)c4)OC[C@@H]3C2)c1Cl [Example 6, [(3R,9aS)-3-(3-bromo-4-fluoro-phenyl)-3,4,6,7,9,9a-hexahydro-1H-pyrazino[2,1-c][1,4]oxazin-8-yl]-(2-chloro-3-methoxy-phenyl)methanone] | 10.9
26 | O=C(c1cnc2[nH]ncc2c1Cl)N1CCN2C[C@@H](c3ccc(F)c(Cl)c3)OC[C@@H]2C1 [Example 8, [(3R,9aS)-3-(3-chloro-4-fluoro-phenyl)-3,4,6,7,9,9a-hexahydro-1H-pyrazino[2,1-c][1,4]oxazin-8-yl]-(4-chloro-1H-pyrazolo[3,4-b]pyridin-5-yl)methanone] | 705
27 | COc1cccc(C(=O)N2CCN3C[C@@H](c4ccc(F)c(Cl)c4)OC[C@@H]3C2)c1F [Example 9, [(3R,9aS)-3-(3-chloro-4-fluoro-phenyl)-3,4,6,7,9,9a-hexahydro-1H-pyrazino[2,1-c][1,4]oxazin-8-yl]-(2-fluoro-3-methoxy-phenyl)methanone] | 85.6
28 | COc1cccc(C(=O)N2CCN3C[C@@H](c4ccc(F)c(-c5ccccc5)c4)OC[C@@H]3C2)c1Cl [Example 11, [(3R,9aS)-3-(4-fluoro-3-phenyl-phenyl)-3,4,6,7,9,9a-hexahydro-1H-pyrazino[2,1-c][1,4]oxazin-8-yl]-(2-chloro-3-methoxy-phenyl)methanone] | 259
